Assay results from US5036054A, “Renin inhibitors containing alpha-heteroatom amino acids” (Warner-Lambert Company, priority 1988, dated 1991).

Each compound was assayed against T1, renin (Homo sapiens, UniProt P00797) (assay: in vitro renin inhibitory activity, radioimmunoassay for angiotensin I). Conditions: 10^-6 molar test compound; renin incubated 2 hours at 37° with substrate angiotensinogen; angiotensin I by radioimmunoassay.
T1 sequence (P00797 67-406): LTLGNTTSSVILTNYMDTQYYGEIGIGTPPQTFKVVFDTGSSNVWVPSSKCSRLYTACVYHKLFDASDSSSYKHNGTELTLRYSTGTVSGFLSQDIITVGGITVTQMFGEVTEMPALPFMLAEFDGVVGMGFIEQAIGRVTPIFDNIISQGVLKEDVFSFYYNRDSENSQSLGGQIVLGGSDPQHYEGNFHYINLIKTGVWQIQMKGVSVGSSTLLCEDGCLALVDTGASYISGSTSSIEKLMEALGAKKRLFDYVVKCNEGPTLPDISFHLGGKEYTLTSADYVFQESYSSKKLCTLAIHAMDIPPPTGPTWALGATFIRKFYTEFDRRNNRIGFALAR
Assay type: biochemical
Description: The effectiveness of the aforementioned compounds is determined by a test for in vitro renin inhibitory activity. This activity is determined by a standard radioimmunoassay for angiotensin I. In this assay the enzyme, renin, incubated for 2 hours at 37° in the presense of a substrate, angiotensinogen, generates the product, angiotensin I. Test compounds are added to the incubation mixture. Relative activity is reported as the percent inhibition at 10^-6 molar concentration.

| Compound | Activity % Inhibition @ 10^-6 M [%] |
| --- | --- |
| CCC(C)CNC(=O)CC(O)C(CC(C)C)NC(=O)C(NC(=O)C(Cc1cccc2ccccc12)Cc1cccc2ccccc12)N(C)C (single isomer, unassigned) [DNMANHCH(N(CH3)2)COSTANHCH2 CH(CH3)CH2 CH3 (slow isomer), DNMA-NHCH(N(CH3)2 CO-STA-NHCH2 CH(CH3)CH2 CH3] | 55 |
| CCC(C)CNC(=O)CC(O)C(CC(C)C)NC(=O)C(N)NC(=O)C(Cc1cccc2ccccc12)Cc1cccc2ccccc12 (single isomer, unassigned) [DNMANHCH(NH2)COSTANHCH2 CH(CH3)CH2 CH3 (fast isomer), DNMA-NHCH(NH2)CO-STA-NHCH2 CH(CH3)CH2 CH3] | 9 |
| CCOC(NC(=O)C(Cc1cccc2ccccc12)Cc1cccc2ccccc12)C(=O)N[C@@H](CC(C)C)[C@@H](O)CC(=O)NCC(C)CC (single isomer, unassigned) [DNMANHCH(OC2 H5)COSTANHCH2 CH(CH3)CH2 CH3 (fast isomer), DNMA-NHCH(OC2 H5)CO-STA-NHCH2 CH(CH3)CH2 CH3] | 100 |
| CCC(C)CNC(=O)CC(O)C(CC(C)C)NC(=O)C(NC(=O)C(Cc1cccc2ccccc12)Cc1cccc2ccccc12)SC(C)C (single isomer, unassigned) [DNMANHCH(SCH(CH3)2)COSTANHCH2 CH(CH3)CH2 CH3 (fast isomer), DNMA-NHCH(SCH(CH3)2)CO-STA-NHCH2 CH(CH3)CH2 CH3] | 87 |
| CCC(C)CNC(=O)CC(O)C(CC(C)C)NC(=O)C(NC(=O)C(Cc1cccc2ccccc12)Cc1cccc2ccccc12)SC(C)C (single isomer, unassigned) [DNMANHCH(SCH(CH3)2)COSTANHCH2 CH(CH3)CH2 CH3 (slow isomer), DNMA-NHCH(SCH(CH3)2)CO-STA-NHCH2 CH(CH3)CH2 CH3] | 26 |
| CCOC(=O)NC(NC(=O)C(Cc1cccc2ccccc12)Cc1cccc2ccccc12)C(=O)NC(CC(C)C)C(O)CC(=O)NCC(C)CC (centres unmarked) [DNMA-NHCH(NHCO2 Et)CO-STA-NHCH2 CH(CH3)CH2 CH3] | 40 |
| CCC(C)CNC(=O)CC(O)C(CC(C)C)NC(=O)C(NC(C)=O)NC(=O)C(Cc1cccc2ccccc12)Cc1cccc2ccccc12 (centres unmarked) [DNMA-NHCH(NHCOCH3)CO-STA-NHCH2 CH(CH3)CH2 CH3] | 39 |
| CCC(C)CNC(=O)CC(O)C(CC(C)C)NC(=O)C(NC(=O)C(Cc1cccc2ccccc12)Cc1cccc2ccccc12)Nc1ccccc1 (centres unmarked) [DNMANHCH(NHPh)COSTANHCH2 CH(CH3)CH2 CH3, DNMA-NHCH(NHPh)CO-STA-NHCH2 CH(CH3)CH2 CH3] | 56 |
| CCC(C)CNC(=O)C[C@H](O)[C@H](CC(C)C)NC(=O)C(NC(=O)C(Cc1cccc2ccccc12)Cc1cccc2ccccc12)OC (some centres unmarked) [DNMANHCH(OCH3)COSTANHCH2 CH(CH3)CH2 CH3, DNMA-NHCH(OCH3)CO-STA-NHCH2 CH(CH3)CH2 CH3] | 90 |
| CCC(C)CNC(=O)CC(O)C(CC(C)C)NC(=O)C(NC(=O)C(Cc1cccc2ccccc12)Cc1cccc2ccccc12)SC (centres unmarked) [DNMANHCH(SCH3)COSTANHCH2 CH(CH3)CH2 CH3, DNMA-NHCH(SCH3)CO-STA-NHCH2 CH(CH3)CH2 CH3] | 86 |
| CCC(C)CNC(=O)CC(O)C(CC(C)C)NC(=O)C(NC(=O)C(Cc1cccc2ccccc12)Cc1cccc2ccccc12)[S+](C)[O-] (centres unmarked) [DNMANHCH(SOCH3)COSTANHCH2 CH(CH3)CH2 CH3, DNMA-NHCH(SOCH3)CO-STA-NHCH2 CH(CH3)CH2 CH3] | 35 |
| CCC(C)CNC(=O)CC(O)C(CC(C)C)NC(=O)C(NC(=O)C(Cc1cccc2ccccc12)Cc1cccc2ccccc12)Sc1ccccc1 (centres unmarked) [DNMANHCH(SPh)COSTANHCH2 CH(CH3)CH2 CH3, DNMA-NHCH(SPh)CO-STA-NHCH2 CH(CH3) CH2 CH3] | 40 |
| DNMA-NHCH(NH2)CO-STA-NHCH2 CH(CH3)CH2 CH3 [DNMANHCH(NH2)COSTANHCH2 CH(CH3)CH2 CH3 (slow isomer)] | 54 |
| DNMA-NHCH(NH(CH2)3 NHCSNHCH3)CO-STA-NHCH2 CH(CH3)CH2 CH3 | 36 |
| DNMA-NHCH(NHC2 H5)CO-STA-NHCH2 CH(CH3) CH2 CH3 [DNMANHCH(NHC2 H5)COSTANHCH2 CH(CH3)CH2 CH3 (slow isomer)] | 71 |
| DNMA-NHCH(NHCH(CH3)2)CO-STA-NHCH2 CH(CH3)CH2 CH3 [DNMA-NHCH(NHCH(CH3)2)COSTANHCH2 CH(CH3)CH2 CH3 (slow isomer)] | 60 |
| DNMA-NHCH(OC2 H5)CO-STA-NHCH2 CH(CH3)CH2 CH3 [DNMANHCH(OC2 H5)COSTANHCH2 CH(CH3)CH2 CH3 (slow isomer)] | 15 |
